Experimental data published in article PMC6332448, “SAR Studies Leading to the Identification of a Novel Series of Metallo-β-lactamase Inhibitors for the Treatment of Carbapenem-Resistant Enterobacteriaceae Infections That Display Efficacy in an Animal Infection Model” (ACS Infectious Diseases, 2018).
Converted amounts (≈) assume the structure as drawn. “And” between values parts separate entries of the source, which are not always exact repeats. Identical values can stand only once. Like-named read-outs stand apart in the source and are kept apart here.

How the values were obtained:
NDM-1 = NDM-1 (Klebsiella pneumoniae, UniProt C7C422); assay: biochemical; type: biochemical; settings: for IC50: 10 mM HEPES pH 7.5, 25 °C, average of at least two independent assays; for inhibition of NDM-1, in words: tested up to 200 μM
VIM-1 = VIM-1 (Pseudomonas aeruginosa, UniProt A0A0F7KYQ8); assay: biochemical; type: biochemical; settings: for inhibition of VIM-1, in words: tested up to 200 μM
IMP-1 = IMP-1 (Serratia marcescens, UniProt P52699); assay: biochemical; type: biochemical; settings: for inhibition of IMP-1, in words: tested up to 200 μM
VIM-2 [1] = target: T1, VIM-2 (Escherichia coli, UniProt Q5U7L7); settings: tested up to 200 μM
VIM-2 [2] = target: T1, VIM-2; assay: biochemical
[3] = tested on: NDM-1-producing strain Escherichia coli NTBC121; assay: Whole-cell meropenem potentiation, CLSI broth microdilution MIC; type: cell-based; settings: for MICMEM (meropenem MIC in presence of inhibitor) vs NTBC121: inhibitor present at 100 μM, meropenem alone 32 μg/mL; for potentiation efficiency (PE = MIC/IC50): potentiated meropenem MIC vs E. coli NTBC121 divided by NDM-1 IC50
Description: (§1) Minimal inhibitory concentrations (MIC) were determined using the Clinical Laboratory Standards Institute (CLSI) broth microdilution procedure. MBL-positive Enterobacteriaceae clinical isolates tested in the susceptibility study included NDM-1-producing strain E. coli NTBC121, VIM-1-producing strain K. pneumoniae NTBC055, and IMP-1-producing strain K. pneumoniae NTBC062. (Individual MICs for all strains tested are presented in Table 2 and Table 1 in the Supporting Information).

[4] = tested on: VIM-1-producing strain Klebsiella pneumoniae NTBC055; assay: as above; type: cell-based; settings: K. pneumoniae NTBC055 (VIM-1); for MICMEM (meropenem MIC in presence of inhibitor) vs NTBC055: inhibitor present at 100 μM, meropenem alone 16 μg/mL
Description: as §1

[5] = tested on: IMP-1-producing strain K. pneumoniae NTBC062; assay: as above; type: cell-based, Klebsiella pneumoniae; settings: K. pneumoniae NTBC062 (IMP-1); for MICMEM (meropenem MIC in presence of inhibitor) vs NTBC062: inhibitor present at 100 μM, meropenem alone 4 μg/mL
Description: as §1

[6] = Kinetic solubility in PBS pH 7.4; type: physicochemical; settings: for solubility at 4 h: phosphate-buffered saline, pH 7.4, aqueous buffer, thermodynamic from solid
Description: This was determined by vigorous stirring (1200 rpm) of a 20 mg/mL mixture of the test compound in phosphate-buffered saline (PBS) at pH 7.4 for 4 h. The mixture was then centrifuged for 20 min at 10 000 rpm and the supernatant further processed by filtration. The concentration of the test compound in the filtrate was then determined by high-performance liquid chromatography (UV analysis) by comparison to a standard calibration curve of the test compound.

[7] = tested on: NDM- and VIM-producing clinical strains; set-up: method as in PMID 29530861; settings: cited from earlier work
E. coli (IR3) = tested on: E. coli (IR3); set-up: method as in PMID 29530861; settings: E. coli (IR3) murine thigh infection model, in combination with meropenem; cited from earlier work
[8] = 300 μM imipenem, read-out: NDM-1 IC50
[9] = 300 μM imipenem, 10 mM HEPES pH 7.5, 25 °C, average of at least two independent assays, read-out: VIM-1 IC50
[10] = 300 μM imipenem, 10 mM HEPES pH 7.5, 25 °C, average of at least two independent assays, read-out: IMP-1 IC50
[11] = acid form, read-out: solubility
[12] = sodium salt, read-out: solubility (Na salt)
[13] = Klebsiella pneumoniae, no inhibitor

IMP-1, sequence (P52699 19-246, looked up, species assumed): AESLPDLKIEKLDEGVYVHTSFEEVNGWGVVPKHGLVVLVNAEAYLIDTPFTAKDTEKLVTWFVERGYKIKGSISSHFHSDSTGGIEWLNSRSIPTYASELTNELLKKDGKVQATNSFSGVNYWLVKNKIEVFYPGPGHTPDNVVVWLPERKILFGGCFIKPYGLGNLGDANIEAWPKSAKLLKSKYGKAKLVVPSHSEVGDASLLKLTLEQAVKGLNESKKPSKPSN
NDM-1, sequence (C7C422 29-270, looked up, species assumed): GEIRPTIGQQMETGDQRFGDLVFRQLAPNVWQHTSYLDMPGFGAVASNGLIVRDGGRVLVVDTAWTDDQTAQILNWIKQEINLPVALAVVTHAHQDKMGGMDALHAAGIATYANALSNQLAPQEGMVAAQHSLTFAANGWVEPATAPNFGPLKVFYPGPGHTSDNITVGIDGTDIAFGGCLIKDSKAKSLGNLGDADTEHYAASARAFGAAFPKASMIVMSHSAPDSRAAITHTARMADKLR

| Structure (SMILES) | IC50 (NDM-1; NDM-1 IC50, 300 μM imipenem) | IC50 (VIM-1) | IC50 (IMP-1) | IC50 (VIM-2 [2]) | MICMEM (meropenem MIC in presence of inhibitor) vs NTBC121 ([3]; E. coli NTBC121 (NDM-1)) | MICMEM (meropenem MIC in presence of inhibitor) vs NTBC055 [4] | MICMEM (meropenem MIC in presence of inhibitor) vs NTBC062 [5] | other results |
| --- | --- | --- | --- | --- | --- | --- | --- | --- |
| Cc1ccc(C(=O)Nc2cccnc2C(=O)O)cc1Cl [Compound 17] | 8.46 µM and 8.5 µM | 95.7 µM | 87.6 µM | 93 µM | – | – | – | inhibition of NDM-1, in words (NDM-1): low micromolar inhibition; inhibition of VIM-1, in words (VIM-1): detectable inhibition; inhibition of IMP-1, in words (IMP-1): detectable inhibition; inhibition of VIM-2, in words (VIM-2 [1]): detectable inhibition |
| O=C(Nc1cccnc1C(=O)O)c1cocn1 [Compound 18] | > 200 µM | > 200 µM | > 200 µM | > 200 µM | – | – | – | inhibition of NDM-1, in words (NDM-1): inactive; inhibition of VIM-1, in words (VIM-1): inactive; inhibition of IMP-1, in words (IMP-1): inactive; inhibition of VIM-2, in words (VIM-2 [1]): inactive |
| O=C(Cc1cccs1)Nc1cccnc1C(=O)O [Compound 23] | 6.56 µM and 6.6 µM | 133 µM | 146 µM | 91.3 µM | – | – | – | – |
| O=C(O)c1ncccc1NS(=O)(=O)c1ccccc1 [Compound 32] | 49.9 µM | > 200 µM | > 200 µM | 1.9 µM | 16 µg/mL | 4 µg/mL | 2 µg/mL | inhibition of VIM-2, in words (VIM-2 [1]): strong inhibition |
| O=C(O)c1ncccc1NS(=O)(=O)Cc1ccccc1Cl [Compound 39] | – | – | – | – | 16 µg/mL | 0.5 µg/mL | 1 µg/mL | IC50 (NDM-1; [8]): 32.6 µM; IC50 (VIM-1; [9]): 10.9 µM; IC50 (IMP-1; [10]): 20.9 µM |
| O=C(O)c1ncccc1NS(=O)(=O)Cc1cccc(C(F)(F)F)c1 [Compound 40] | – | – | – | – | 16 µg/mL | 2 µg/mL | 1 µg/mL | IC50 (NDM-1; [8]): 17.9 µM; IC50 (VIM-1; [9]): 71.6 µM; IC50 (IMP-1; [10]): > 200 µM |
| O=C(O)c1ncccc1NS(=O)(=O)Cc1ccc(Cl)cc1Cl [Compound 41] | – | – | – | – | 16 µg/mL | 1 µg/mL | 1 µg/mL | IC50 (NDM-1; [8]): 80.6 µM; IC50 (VIM-1; [9]): 17.5 µM; IC50 (IMP-1; [10]): 74.3 µM |
| O=C(O)c1ncccc1NS(=O)(=O)Cc1cc(Cl)cc(Cl)c1 [Compound 43] | 18.6 µM | 57.2 µM | 180 µM | 0.3 µM | 8 µg/mL | 1 µg/mL | 1 µg/mL | inhibition of VIM-2, in words (VIM-2 [1]): strong inhibition |
| O=C(O)c1ncccc1NS(=O)(=O)c1ccccc1 [Compound 61] | – | – | – | – | 16 µg/mL | 4 µg/mL | 4 µg/mL | IC50 (NDM-1; read-out: NDM-1 IC50, 300 μM imipenem): 49.9 µM; IC50 (VIM-1; read-out: VIM-1 IC50, 300 μM imipenem, 10 mM HEPES pH 7.5, 25 °C, average of at least two independent assays): > 200 µM; IC50 (IMP-1; read-out: IMP-1 IC50, 300 μM imipenem, 10 mM HEPES pH 7.5, 25 °C, average of at least two independent assays): > 200 µM; potentiation efficiency (PE = MIC/IC50) [3]: 0.32 |
| O=C(O)c1ncsc1NS(=O)(=O)c1ccccc1 [Compound 62] | 4.5 µM | > 200 µM | 58.2 µM | 6.2 µM | 0.125 µg/mL | 0.5 µg/mL | 1 µg/mL | improvement in potentiation over that expected from enzyme inhibition alone ([3]; 62 (thiazolyl) versus 61 (pyridyl), from PE values): 10 fold; potentiation efficiency (PE = MIC/IC50) [3]: 0.027; solubility at 4 h [6, 11]: 1.1 mg/mL (≈ 3.87 mM); solubility at 4 h [6, 12]: 18.9 mg/mL |
| O=C(O)c1ncccc1NS(=O)(=O)Cc1ccccc1 [Compound 63] | > 100 µM | > 100 µM | > 100 µM | – | 16 µg/mL | 1 µg/mL | 1 µg/mL | – |
| O=C(O)c1ncsc1NS(=O)(=O)Cc1ccccc1 [Compound 64] | 2.53 µM | 62.7 µM | 1.83 µM | – | 0.5 µg/mL | 0.5 µg/mL | 0.5 µg/mL | – |
| N#Cc1cccc(CS(=O)(=O)Nc2cccnc2C(=O)O)c1 [Compound 65] | 116 µM | > 200 µM | 150 µM | – | 32 µg/mL | 2 µg/mL | 1 µg/mL | – |
| N#Cc1cccc(CS(=O)(=O)Nc2scnc2C(=O)O)c1 [Compound 66] | 8.82 µM | 54.2 µM | 2.51 µM | – | 2 µg/mL | 0.5 µg/mL | 1 µg/mL | – |
| O=C(O)c1ncsc1NS(=O)(=O)Cc1ccccc1Cl [Compound 68] | 2.32 µM | 6.72 µM | 1.75 µM | – | 0.5 µg/mL | 0.25 µg/mL | 0.5 µg/mL | – |
| O=C(O)c1ncsc1NS(=O)(=O)Cc1ccc(Cl)c(Cl)c1 [Compound 70] | 7.88 µM | 37.9 µM | 3.55 µM | – | 2 µg/mL | 1 µg/mL | 1 µg/mL | – |
| O=C(O)c1ncsc1NS(=O)(=O)Cc1ccc(Cl)cc1Cl [Compound 72] | 2.1 µM | 7 µM | 0.5 µM | – | 0.5 µg/mL | 0.5 µg/mL | 0.5 µg/mL | – |
| O=C(O)c1ncsc1NS(=O)(=O)Cc1cc(Cl)cc(Cl)c1 [Compound 74] | 6.9 µM | 28 µM | 3.2 µM | – | 2 µg/mL | 0.5 µg/mL | 1 µg/mL | – |
| O=C(O)c1ncsc1NS(=O)(=O)c1ccccn1 [Compound 75] | 12.9 µM | > 200 µM | 114 µM | 16.1 µM | – | – | – | – |
| O=C(O)c1ncsc1NS(=O)(=O)c1cccnc1 [Compound 76, 5-(Pyridine-3-sulfonamido)-1,3-thiazole-4-carboxylic acid] | 2.67 µM | – | 54 µM | – | 0.06 µg/mL | – | – | solubility at 4 h [6, 11]: 2.4 mg/mL (≈ 8.41 mM); solubility at 4 h [6, 12]: ~20 mg/mL; solubility (Na salt) ([6]; sodium salt): 16.9 mg/mL; effective inhibitor concentration for potentiation of meropenem ([7]; listed as ANT431): 28 μM and 8 μg/mL; potentiation of meropenem activity, in words ([7]; panel of 94 randomly selected NDM- and VIM-producing clinical strains): potentiate meropenem activity; efficacy with meropenem in thigh infection model, in words (E. coli (IR3)): restore the efficacy of meropenem |
| O=C(O)c1ncsc1NS(=O)(=O)c1ccncc1 [Compound 77] | 3.4 µM | 180 µM | 23.4 µM | 1.8 µM | – | – | – | – |
| C[C@@H](O)[C@H]1C(=O)N2C(C(=O)O)=C(S[C@@H]3CN[C@H](C(=O)N(C)C)C3)[C@H](C)[C@H]12 [meropenem, reference compound] | – | – | – | – | – | – | – | MIC ([3]; Escherichia coli, no inhibitor, E. coli NTBC121 (NDM-1)): 32 µg/mL; MIC meropenem (no inhibitor) vs NTBC121 ([3]; no inhibitor, E. coli NTBC121 (NDM-1)): 32 µg/mL; MIC [4, 13]: 16 µg/mL; MIC meropenem (no inhibitor) vs NTBC055 ([4]; no inhibitor): 16 µg/mL; MIC [5, 13]: 4 µg/mL; MIC meropenem (no inhibitor) vs NTBC062 ([5]; no inhibitor): 4 µg/mL |
